Source: patent US9657014B2, “Substituted 1,6-naphthyridines” (Hoffmann-La Roche Inc., priority 2012, dated 2017)

tested on: human embryonic stem cell derived neural stem cells (NSCs); experiment: Neural stem cell proliferation assay (neurogenesis assay); assay type: cell-based; details: Homo sapiens, Neural stem cell, 96 h; Table 1, novel compounds; concentration at which 150% activity of control (100%) is reached; ATP levels (CellTiterGlo) after 4 days incubation
Procedure: Neural Stem Cell Proliferation Assay
Neurogenic properties of small molecules are determined based on the proliferation of human embryonic stem cell derived neural stem cells (NSCs) which were derived via a dual smad inhibition as previously described (Chambers, S. M., et al., Highly efficient neural conversion of human ES and iPS cells by dual inhibition of SMAD signaling, Nature biotechnology, 2009. 27 (3): p. 275-80.)
Compounds respond is measured by the increase in cells based on ATP levels (Promega:CellTiterGlo®) after an incubation period of 4 days.
NSCs are thawed and expanded over 3 passages. On the 14th day, NSCs are seeded in Polyornithin/Laminin coated 384 well plates at a cell density of 21,000 cells/cm^2 in a media volume of 38 μl.
4 hours after cell seeding, compound solutions are added at a volume of 2 μl. Stock solutions of the compounds (water, 5% DMSO) are diluted to obtain a dose response (11 points, dilution factor is 2), ranging from 8 μM to 8 nM. Controls are run to consistently determine the neurogenic properties of the cells:
Negative (neutral) control is cell culture Media (final DMSO concentration: 0.25%).
Positive controls are: • 1. cell culture Media+100 ng/ml FGF2 (final DMSO concentration: 0.1%) • 2. cell culture Media+20 ng/ml EGF (final DMSO concentration: 0.1%) • 3. cell culture Media+100 ng/ml Wnt3a (final DMSO concentration: 0.1%)
After 4 days incubation at 37° C., 5% CO2, the amount of ATP per well is quantified. The ATP concentration is proportional to the cell number. ATP is quantified by using the Promega CellTiterGlo® kit. The CellTiterGlo® reagents contain a cell lysis buffer, a thermo stable luciferase (UltraGlo™ recombinant luciferase), magnesium and luciferin. Luciferin reacts with ATP producing oxyluciferin, AMP and light. The luminescence signal is proportional to the ATP content.
The value of negative (neutral) control is determined for each assay plate by taking the average of 16 negative control wells. The neurogenic compound response is calculated for each compound as (compound/Negative Control)*100.
The values of EC150 from the dose response curve are determined for each test compound. The EC150 is the compound concentration at which 150% activity of control (100%) is reached.

**Q.** How did the EC (150% of control) turn out when `CS(=O)(=O)CCNC(=O)c1ccc2cncc(-c3ccc(Cl)cc3)c2n1` [Example 72, 8-(4-Chlorophenyl)-N-(2-(methylsulfonyl)ethyl)-1,6-naphthyridine-2-carboxamide] was run?
**A.** 0.1 µM

**Q.** `CN1CCN(C(=O)c2ccc3cncc(-c4ccc(Cl)cc4)c3n2)CC1` [Example 73, (8-(4-Chlorophenyl)-1,6-naphthyridin-2-yl)(4-methylpiperazin-1-yl)methanone] was tested. Which EC (150% of control) did it give?
**A.** 0.64 µM

**Q.** With `O=C(c1ccc2cncc(-c3ccc(Cl)cc3)c2n1)N1CCS(=O)(=O)CC1` [Example 74, [8-(4-Chloro-phenyl)-[1,6]naphthyridin-2-yl]-(1,1-dioxo-thiomorpholin-4-yl)-methanone] as the molecule, how does the EC (150% of control) read?
**A.** 1.68 µM

**Q.** For `O=C(c1ccc2cncc(-c3ccc(Cl)cc3)c2n1)N1CCC(O)C1` (stereo not shown) [Example 75, (8-(4-Chlorophenyl)-1,6-naphthyridin-2-yl)(3-hydroxypyrrolidin-1-yl)methanone], which EC (150% of control) is on record?
**A.** 0.4 µM

**Q.** How did the EC (150% of control) turn out when `N#CC1(NC(=O)c2ccc3cncc(-c4ccc(Cl)cc4)c3n2)CC1` [Example 76, 8-(4-Chlorophenyl)-N-(1-cyanocyclopropyl)-1,6-naphthyridine-2-carboxamide] was run?
**A.** 1.84 µM

**Q.** How did the EC (150% of control) turn out when `NC(=O)c1ccc2cncc(-c3ccc(F)cc3)c2n1` [Example 77, 8-(4-Fluorophenyl)-1,6-naphthyridine-2-carboxamide] was run?
**A.** 0.09 µM

**Q.** Which EC (150% of control) does the source give for `NC(=O)c1ccc2cncc(-c3cccc(F)c3)c2n1` [Example 78, 8-(3-Fluorophenyl)-1,6-naphthyridine-2-carboxamide] here?
**A.** 0.05 µM

**Q.** `NC(=O)c1ccc2cncc(-c3ccccc3F)c2n1` [Example 79, 8-(2-Fluorophenyl)-1,6-naphthyridine-2-carboxamide] was tested. Which EC (150% of control) did it give?
**A.** 0.03 µM

**Q.** With `Cc1ccc(-c2cncc3ccc(C(N)=O)nc23)cc1` [Example 80, 8-Tolyl-1,6-naphthyridine-2-carboxamide] as the molecule, how does the EC (150% of control) read?
**A.** 0.03 µM

**Q.** Which EC (150% of control) does the source give for `Cc1cccc(-c2cncc3ccc(C(N)=O)nc23)c1` [Example 81, 8-m-Tolyl-1,6-naphthyridine-2-carboxamide] here?
**A.** 0.05 µM

**Q.** With `Cc1ccccc1-c1cncc2ccc(C(N)=O)nc12` [Example 82, 8-o-Tolyl-1,6-naphthyridine-2-carboxamide] as the molecule, how does the EC (150% of control) read?
**A.** 2.05 µM

**Q.** `NC(=O)c1ccc2cncc(-c3ccc(F)c(F)c3)c2n1` [Example 83, 8-(3,4-Difluorophenyl)-1,6-naphthyridine-2-carboxamide] was tested. Which EC (150% of control) did it give?
**A.** 0.1 µM

**Q.** `NC(=O)c1ccc2cncc(-c3cc(F)c(F)c(F)c3)c2n1` [Example 84, 8-(3,4,5-Trifluorophenyl)-1,6-naphthyridine-2-carboxamide] was tested. Which EC (150% of control) did it give?
**A.** 0.25 µM

**Q.** How did the EC (150% of control) turn out when `N#Cc1ccc(-c2cncc3ccc(C(N)=O)nc23)cc1` [Example 85, 8-(4-Cyanophenyl)-1,6-naphthyridine-2-carboxamide] was run?
**A.** 0.05 µM

**Q.** Which EC (150% of control) does the source give for `CS(=O)(=O)c1ccc(-c2cncc3ccc(C(N)=O)nc23)cc1` [Example 86, 8-(4-(Methylsulfonyl)phenyl)-1,6-naphthyridine-2-carboxamide] here?
**A.** 0.03 µM

**Q.** `CS(=O)(=O)c1cccc(-c2cncc3ccc(C(N)=O)nc23)c1` [Example 87, 8-(3-(Methylsulfonyl)phenyl)-1,6-naphthyridine-2-carboxamide] was tested. Which EC (150% of control) did it give?
**A.** 0.79 µM

**Q.** How did the EC (150% of control) turn out when `CS(=O)(=O)c1ccccc1-c1cncc2ccc(C(N)=O)nc12` [Example 88, 8-(2-(Methylsulfonyl)phenyl)-1,6-naphthyridine-2-carboxamide] was run?
**A.** 0.5 µM

**Q.** How did the EC (150% of control) turn out when `COc1ccc(-c2cncc3ccc(C(N)=O)nc23)cn1` [Example 89, 8-(6-Methoxypyridin-3-yl)-1,6-naphthyridine-2-carboxamide] was run?
**A.** 0.09 µM

**Q.** How did the EC (150% of control) turn out when `Cc1cc(-c2cncc3ccc(C(N)=O)nc23)ccn1` [Example 90, 8-(2-Methylpyridin-4-yl)-1,6-naphthyridine-2-carboxamide] was run?
**A.** 0.17 µM

**Q.** Which EC (150% of control) does the source give for `NC(=O)c1ccc2cncc(-c3ccc4c(c3)OCO4)c2n1` [Example 91, 8-(Benzo[d][1,3]dioxol-5-yl)-1,6-naphthyridine-2-carboxamide] here?
**A.** 0.03 µM

**Q.** How did the EC (150% of control) turn out when `NC(=O)c1ccc2cncc(-c3ccc4c(c3)OCCO4)c2n1` [Example 92, 8-(2,3-Dihydrobenzo[b][1,4]dioxin-6-yl)-1,6-naphthyridine-2-carboxamide] was run?
**A.** 0.03 µM

**Q.** For `NC(=O)c1ccc2cncc(-c3cccc(N4CCOCC4)c3)c2n1` [Example 93, 8-(3-Morpholinophenyl)-1,6-naphthyridine-2-carboxamide], which EC (150% of control) is on record?
**A.** 0.21 µM

**Q.** How did the EC (150% of control) turn out when `NC(=O)c1ccc2cncc(-c3ccc(N4CCOCC4)cc3)c2n1` [Example 94, 8-(4-Morpholinophenyl)-1,6-naphthyridine-2-carboxamide] was run?
**A.** 0.01 µM

**Q.** With `NC(=O)c1ccc2cncc(-c3ccc(OC(F)(F)F)cc3)c2n1` [Example 95, 8-(4-(Trifluoromethoxy)phenyl)-1,6-naphthyridine-2-carboxamide] as the molecule, how does the EC (150% of control) read?
**A.** 0.05 µM

**Q.** Which EC (150% of control) does the source give for `O=C(NCc1ccncn1)c1ccc2cncc(-c3ccc(Cl)cc3)c2n1` [Example 96, 8-(4-Chlorophenyl)-N-(pyrimidin-4-ylmethyl)-1,6-naphthyridine-2-carboxamide] here?
**A.** 0.17 µM

**Q.** Which EC (150% of control) does the source give for `CN(C(=O)c1ccc2cncc(-c3ccc(Cl)cc3)c2n1)C1CC1` [Example 97, 8-(4-Chlorophenyl)-N-cyclopropyl-N-methyl-1,6-naphthyridine-2-carboxamide] here?
**A.** 0.26 µM

**Q.** `Cn1cc(-c2cncc3ccc(C(N)=O)nc23)cn1` [Example 98, 8-(1-Methyl-1H-pyrazol-4-yl)-1,6-naphthyridine-2-carboxamide] was tested. Which EC (150% of control) did it give?
**A.** 0.14 µM

**Q.** `Cn1nccc1-c1cncc2ccc(C(N)=O)nc12` [Example 99, 8-(1-Methyl-1H-pyrazol-5-yl)-1,6-naphthyridine-2-carboxamide] was tested. Which EC (150% of control) did it give?
**A.** 2.2 µM

**Q.** For `COCc1cccc(-c2cncc3ccc(C(N)=O)nc23)c1` [Example 100, 8-(3-(Methoxymethyl)phenyl)-1,6-naphthyridine-2-carboxamide], which EC (150% of control) is on record?
**A.** 0.02 µM

**Q.** How did the EC (150% of control) turn out when `NC(=O)c1ccc2cncc(-c3ccc(C(F)(F)F)cc3)c2n1` [Example 101, 8-(4-(Trifluoromethyl)phenyl)-1,6-naphthyridine-2-carboxamide] was run?
**A.** 0.02 µM

**Q.** For `Cc1nc(C)c(-c2cncc3ccc(C(N)=O)nc23)s1` [Example 102, 8-(2,4-Dimethylthiazol-5-yl)-1,6-naphthyridine-2-carboxamide], which EC (150% of control) is on record?
**A.** 0.14 µM

**Q.** `NC(=O)c1ccc2cncc(-c3ccc(-n4cccn4)cc3)c2n1` [Example 103, 8-(4-(1H-Pyrazol-1-yl)phenyl)-1,6-naphthyridine-2-carboxamide] was tested. Which EC (150% of control) did it give?
**A.** 0.01 µM

**Q.** How did the EC (150% of control) turn out when `COCc1ccc(-c2cncc3ccc(C(N)=O)nc23)cc1` [Example 104, 8-(4-(Methoxymethyl)phenyl)-1,6-naphthyridine-2-carboxamide] was run?
**A.** 0.02 µM

**Q.** `CC(C)Oc1ccc(-c2cncc3ccc(C(N)=O)nc23)cc1` [Example 105, 8-(4-Isopropoxyphenyl)-1,6-naphthyridine-2-carboxamide] was tested. Which EC (150% of control) did it give?
**A.** 0.01 µM

**Q.** With `CN(C)S(=O)(=O)c1ccc(-c2cncc3ccc(C(N)=O)nc23)cc1` [Example 106, 8-(4-(N,N-Dimethylsulfamoyl)phenyl)-1,6-naphthyridine-2-carboxamide] as the molecule, how does the EC (150% of control) read?
**A.** 0.19 µM

**Q.** `CC(NC(=O)c1ccc2cncc(-c3ccc(F)cc3)c2n1)c1ccc(S(C)(=O)=O)cc1` (stereo not shown) [Example 107, 8-(4-Fluorophenyl)-N-(1-(4-(methylsulfonyl)phenyl)ethyl)-1,6-naphthyridine-2-carboxamide] was tested. Which EC (150% of control) did it give?
**A.** 0.1 µM

**Q.** Which EC (150% of control) does the source give for `CC(NC(=O)c1ccc2cncc(-c3ccccc3F)c2n1)c1ccc(S(C)(=O)=O)cc1` (stereo not shown) [Example 108, 8-(2-Fluorophenyl)-N-(1-(4-(methylsulfonyl)phenyl)ethyl)-1,6-naphthyridine-2-carboxamide] here?
**A.** 0.5 µM

**Q.** For `CC(NC(=O)c1ccc2cncc(-c3cccc(F)c3)c2n1)c1ccc(S(C)(=O)=O)cc1` (stereo not shown) [Example 109, 8-(3-Fluorophenyl)-N-(1-(4-(methylsulfonyl)phenyl)ethyl)-1,6-naphthyridine-2-carboxamide], which EC (150% of control) is on record?
**A.** 4.2 µM

**Q.** How did the EC (150% of control) turn out when `CC(NC(=O)c1ccc2cncc(-c3ccc(F)cc3F)c2n1)c1ccc(S(C)(=O)=O)cc1` (stereo not shown) [Example 110, 8-(2,4-Difluorophenyl)-N-(1-(4-(methylsulfonyl)phenyl)ethyl)-1,6-naphthyridine-2-carboxamide] was run?
**A.** 0.49 µM

**Q.** With `CC(NC(=O)c1ccc2cncc(-c3ccc(F)c(F)c3)c2n1)c1ccc(S(C)(=O)=O)cc1` (stereo not shown) [Example 111, 8-(3,4-Difluorophenyl)-N-(1-(4-(methylsulfonyl)phenyl)ethyl)-1,6-naphthyridine-2-carboxamide] as the molecule, how does the EC (150% of control) read?
**A.** 0.3 µM
